These are literature values, as cited in patent US7205279B2, “Pharmaceutical compositions” (Novartis AG, priority 1995, dated 2007).

The conditions of this series: room temperature.

Take `CCOC(C)=O` [Ethyl acetate]: the solubility in water was 8.5 g per 100 ml.
